Test results taken from patent US11890268B2, “Dibenzothiophene derivatives and methods of treating cancer therewith” (Saint Louis University, priority 2018, dated 2024).

Assays:
[1] = Deoxygenation of sulfoxide to sulfide on UV-A exposure in plate well, HPLC; assay type: physicochemical; conditions: for Sulfide Concentration 30 Minutes After UV Exposure: Table 3; for Sulfide (MA-4) Concentration: addition of drug pre-UV exposure, n = 4
Protocol: (§1) MDA-MB-231 breast cancer cells were plated at 10,000 cells/well on three 96 well plates. After 24 hours incubation at 37° C., varying concentrations of MA-3 and MA-4 were added and incubated for 1 hour at 37° C. on only two plates (pre-UV and no UV exposure). One plate with cells were then left at room temperature covered for 30 min (no UV). The second plate (pre-UV) and the third plate (post-UV) were exposed to UV-A in a Luzchem photoreactor with 8 LZC-UVA lamps for 30 min. Varying concentrations of MA-3 and MA-4 were added to post UV exposure plate after irradiation. Plates were then incubated for 24 hours at 37° C. and then a MTS cell viability assay (Promega) was performed. Cell viability assay was run on a Flexstation3 mulitmode plate reader and percent viability was calculated. Statistical analyses were performed using GraphPad Prism program.
The concentrations were determined using HPLC injections on Agilent Technologies 1200 series HPLC—quaternary pump. The experiment was carried out in two trials consisting of duplicate studies.

[2] = system: MDA-MB-231 breast cancer cells; assay: MTS cell viability assay with UV-A irradiation; assay type: cell-based
Protocol: as §1

SMILES: O=S(=O)(Oc1ccccc1)c1ccc2c(c1)c1cc(-c3ccc(-c4ccccc4)cc3)ccc1[s+]2[O-] (stereo not shown) [Compound 5a]
- Sulfide Concentration 30 Minutes After UV Exposure ([1]; starting concentration 10 μM): 3.3 ± 1.4 µM

SMILES: CC(=O)OCc1ccc2c(c1)c1cc(COC(C)=O)ccc1[s+]2[O-] [MA-3, 5-oxo-2,8-diacetoxymethyldibenzothiophene]
- % cell viability ([2]; compound added pre-UV exposure, cells irradiated with UV-A): decreases % cell viability
- % cell viability ([2]; compound added pre-UV exposure, cells irradiated with UV-A, listed as 5-oxo-2,8-diacetoxymethyldibenzothiophene): a decrease in % cell viability
- Sulfide (MA-4) Concentration ([1]; Concentration of MA-3 10 μM): 9.653 ± 0.170 µM
- Sulfide (MA-4) Concentration ([1]; Concentration of MA-3 100 μM): 90.02 ± 4.87 µM
- Sulfide Concentration 30 Minutes After UV Exposure ([1]; starting concentration 100 μM): 90 ± 3 µM

SMILES: CC(=O)OCc1ccc2sc3ccc(COC(C)=O)cc3c2c1 [MA-4]
- % cell viability ([2]; any of the UV-exposure conditions (no UV, pre-UV, post-UV)): did not decrease % cell viability
